Results taken from paper PMC8269116 (Journal of psychopharmacology (Oxford, England), 2019).
“And” between values parts separate entries of the source, which are not always exact repeats. Identical values can stand only once.

Molecular target: T1, DAT (Homo sapiens, UniProt Q01959)
Experiment: [3H]dopamine uptake inhibition in HEK 293 cells overexpressing human DAT
Assay type: cell-based
Details: 1/DAT IC50 : 1/SERT IC50; mean and 95% confidence interval

T1 sequence (Q01959 whole entry): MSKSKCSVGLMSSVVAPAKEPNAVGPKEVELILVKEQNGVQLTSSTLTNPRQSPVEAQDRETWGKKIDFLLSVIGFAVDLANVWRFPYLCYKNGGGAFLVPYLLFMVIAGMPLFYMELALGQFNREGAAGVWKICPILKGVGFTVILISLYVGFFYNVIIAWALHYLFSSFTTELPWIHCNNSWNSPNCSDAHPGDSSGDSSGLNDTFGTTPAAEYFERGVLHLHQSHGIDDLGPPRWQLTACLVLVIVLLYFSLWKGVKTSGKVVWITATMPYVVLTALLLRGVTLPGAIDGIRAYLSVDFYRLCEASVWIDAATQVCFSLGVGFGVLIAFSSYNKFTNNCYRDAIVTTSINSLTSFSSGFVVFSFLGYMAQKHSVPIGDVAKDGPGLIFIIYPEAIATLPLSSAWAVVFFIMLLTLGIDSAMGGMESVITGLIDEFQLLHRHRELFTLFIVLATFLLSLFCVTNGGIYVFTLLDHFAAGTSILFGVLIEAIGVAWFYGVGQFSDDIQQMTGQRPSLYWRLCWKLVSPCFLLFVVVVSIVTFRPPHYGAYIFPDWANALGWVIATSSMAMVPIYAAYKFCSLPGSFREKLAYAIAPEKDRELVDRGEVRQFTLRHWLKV

| SMILES | DAT/SERT ratio |
| --- | --- |
| CC(N)C(=O)c1ccc2c(c1)OCO2 (stereo not drawn) [MDC, 3,4-methylenedioxycathinone] | 0.38 (0.24–0.59) |
| CNC(C)Cc1ccc(O)c(OC)c1 (stereo not drawn) [HMMA, 4-hydroxy-3-methoxymethamphetamine] | 3.6 (1.4–8.9) |
| CCCC(C(=O)c1ccc2c(c1)OCO2)N1CCCC1 (stereo not drawn) [MDPV, 3,4-methylenedioxypyrovalerone, reference compound] | 226 (143–350) |

Molecular target: human 5-HT transporter (SERT) (Homo sapiens, UniProt P31645)
Sequence (P31645 whole entry): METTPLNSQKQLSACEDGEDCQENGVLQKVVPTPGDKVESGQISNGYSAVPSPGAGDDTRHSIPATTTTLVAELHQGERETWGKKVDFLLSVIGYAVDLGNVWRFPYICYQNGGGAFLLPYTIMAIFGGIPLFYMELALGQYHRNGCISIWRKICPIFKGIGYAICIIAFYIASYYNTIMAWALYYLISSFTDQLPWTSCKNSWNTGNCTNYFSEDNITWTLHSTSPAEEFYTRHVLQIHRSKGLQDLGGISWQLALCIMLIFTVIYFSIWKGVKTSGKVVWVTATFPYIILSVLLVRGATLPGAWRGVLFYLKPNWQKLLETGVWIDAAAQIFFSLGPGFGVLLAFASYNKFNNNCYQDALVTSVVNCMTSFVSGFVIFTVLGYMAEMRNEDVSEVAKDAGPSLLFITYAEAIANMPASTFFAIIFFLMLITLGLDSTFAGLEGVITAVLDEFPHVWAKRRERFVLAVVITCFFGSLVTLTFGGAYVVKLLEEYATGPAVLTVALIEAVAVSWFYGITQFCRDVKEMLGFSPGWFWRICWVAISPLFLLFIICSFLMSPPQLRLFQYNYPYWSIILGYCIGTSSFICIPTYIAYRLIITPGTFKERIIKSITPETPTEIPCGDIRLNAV
Experiment: [3H]5-HT uptake inhibition in HEK 293 cells overexpressing human SERT
Assay type: cell-based
Details: read-out: SERT IC50; 5-HT uptake inhibition; mean and 95% confidence interval

| SMILES | IC50 |
| --- | --- |
| CC(N)C(=O)c1ccc2c(c1)OCO2 (stereo not drawn) [MDC, 3,4-methylenedioxycathinone] | 13 µM |
| CNC(C)Cc1ccc(O)c(OC)c1 (stereo not drawn) [HMMA, 4-hydroxy-3-methoxymethamphetamine] | 20 µM |
| CCCC(C(=O)c1ccc2c(c1)OCO2)N1CCCC1 (stereo not drawn) [MDPV, 3,4-methylenedioxypyrovalerone, reference compound] | 12 µM |

Molecular target: NET (Homo sapiens, UniProt P23975)
Sequence (P23975 whole entry): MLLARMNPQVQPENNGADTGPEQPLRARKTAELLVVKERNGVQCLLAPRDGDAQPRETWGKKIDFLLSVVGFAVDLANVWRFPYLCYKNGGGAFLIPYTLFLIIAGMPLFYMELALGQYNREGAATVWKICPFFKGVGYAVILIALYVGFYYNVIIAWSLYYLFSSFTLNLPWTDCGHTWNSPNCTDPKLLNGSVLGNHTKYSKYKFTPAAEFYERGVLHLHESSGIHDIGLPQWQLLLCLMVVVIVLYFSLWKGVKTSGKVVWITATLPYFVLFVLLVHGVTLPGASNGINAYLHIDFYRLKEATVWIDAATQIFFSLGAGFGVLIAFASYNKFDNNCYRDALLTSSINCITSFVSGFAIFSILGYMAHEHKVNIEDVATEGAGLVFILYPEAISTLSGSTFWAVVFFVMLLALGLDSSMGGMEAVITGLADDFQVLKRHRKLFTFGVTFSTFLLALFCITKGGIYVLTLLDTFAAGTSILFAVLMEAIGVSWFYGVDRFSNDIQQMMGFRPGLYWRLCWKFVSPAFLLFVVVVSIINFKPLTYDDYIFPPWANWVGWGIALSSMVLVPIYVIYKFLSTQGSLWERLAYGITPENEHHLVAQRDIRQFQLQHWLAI
Experiment: Radioligand binding, N-methyl-[3H]nisoxetine displacement
Details: read-out: NET Ki; mean±SD, n=3

| SMILES | Ki |
| --- | --- |
| CC(N)C(=O)c1ccc2c(c1)OCO2 (stereo not drawn) [MDC, 3,4-methylenedioxycathinone] | > 8.8 µM |
| CNC(C)Cc1ccc(O)c(OC)c1 (stereo not drawn) [HMMA, 4-hydroxy-3-methoxymethamphetamine] | > 8.8 µM |
| CCCC(C(=O)c1ccc2c(c1)OCO2)N1CCCC1 (stereo not drawn) [MDPV, 3,4-methylenedioxypyrovalerone, reference compound] | 0.1 ± 0.01 µM |

Molecular target: T1, DAT
Experiment: Radioligand binding, [3H]WIN35,428 displacement
Details: read-out: DAT Ki; mean±SD, n=3

| SMILES | Ki |
| --- | --- |
| CC(N)C(=O)c1ccc2c(c1)OCO2 (stereo not drawn) [MDC, 3,4-methylenedioxycathinone] | > 8.5 µM |
| CNC(C)Cc1ccc(O)c(OC)c1 (stereo not drawn) [HMMA, 4-hydroxy-3-methoxymethamphetamine] | > 8.5 µM |
| CCCC(C(=O)c1ccc2c(c1)OCO2)N1CCCC1 (stereo not drawn) [MDPV, 3,4-methylenedioxypyrovalerone, reference compound] | 0.01 µM and 0.011 µM |

Molecular target: SERT (Homo sapiens, UniProt P31645)
Sequence (P31645 whole entry): as the sequence (P31645 whole entry) above
Experiment: Radioligand binding, [3H]citalopram displacement
Details: read-out: SERT Ki; mean±SD, n=3

| SMILES | Ki |
| --- | --- |
| CC(N)C(=O)c1ccc2c(c1)OCO2 (stereo not drawn) [MDC, 3,4-methylenedioxycathinone] | > 7.4 µM |
| CNC(C)Cc1ccc(O)c(OC)c1 (stereo not drawn) [HMMA, 4-hydroxy-3-methoxymethamphetamine] | > 7.4 µM |
| CCCC(C(=O)c1ccc2c(c1)OCO2)N1CCCC1 (stereo not drawn) [MDPV, 3,4-methylenedioxypyrovalerone, reference compound] | 2.2 ± 0.1 µM |

Molecular target: dopamine D2 receptors (Homo sapiens, UniProt P14416)
Sequence (P14416 whole entry): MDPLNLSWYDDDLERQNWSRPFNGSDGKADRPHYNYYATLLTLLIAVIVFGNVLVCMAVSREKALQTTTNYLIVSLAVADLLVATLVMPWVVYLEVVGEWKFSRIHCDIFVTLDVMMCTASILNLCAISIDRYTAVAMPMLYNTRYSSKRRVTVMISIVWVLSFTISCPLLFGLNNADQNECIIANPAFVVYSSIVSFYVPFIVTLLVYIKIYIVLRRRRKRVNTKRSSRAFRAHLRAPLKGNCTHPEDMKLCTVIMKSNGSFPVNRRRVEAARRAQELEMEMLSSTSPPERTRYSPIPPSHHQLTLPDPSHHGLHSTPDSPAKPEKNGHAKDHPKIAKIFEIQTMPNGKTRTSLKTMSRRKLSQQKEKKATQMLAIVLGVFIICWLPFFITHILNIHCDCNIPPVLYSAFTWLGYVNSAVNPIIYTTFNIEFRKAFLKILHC
Experiment: Radioligand binding, [3H]spiperone displacement
Details: read-out: D2 Ki; mean±SD, n=3

| SMILES | Ki |
| --- | --- |
| CC(N)C(=O)c1ccc2c(c1)OCO2 (stereo not drawn) [MDC, 3,4-methylenedioxycathinone] | > 13 µM |
| CNC(C)Cc1ccc(O)c(OC)c1 (stereo not drawn) [HMMA, 4-hydroxy-3-methoxymethamphetamine] | > 13 µM |
| CCCC(C(=O)c1ccc2c(c1)OCO2)N1CCCC1 (stereo not drawn) [MDPV, 3,4-methylenedioxypyrovalerone, reference compound] | > 13 µM |

Molecular target: T2, α1 adrenergic receptor (α1A) (Homo sapiens, UniProt P35348)
T2 sequence (P35348 1-466): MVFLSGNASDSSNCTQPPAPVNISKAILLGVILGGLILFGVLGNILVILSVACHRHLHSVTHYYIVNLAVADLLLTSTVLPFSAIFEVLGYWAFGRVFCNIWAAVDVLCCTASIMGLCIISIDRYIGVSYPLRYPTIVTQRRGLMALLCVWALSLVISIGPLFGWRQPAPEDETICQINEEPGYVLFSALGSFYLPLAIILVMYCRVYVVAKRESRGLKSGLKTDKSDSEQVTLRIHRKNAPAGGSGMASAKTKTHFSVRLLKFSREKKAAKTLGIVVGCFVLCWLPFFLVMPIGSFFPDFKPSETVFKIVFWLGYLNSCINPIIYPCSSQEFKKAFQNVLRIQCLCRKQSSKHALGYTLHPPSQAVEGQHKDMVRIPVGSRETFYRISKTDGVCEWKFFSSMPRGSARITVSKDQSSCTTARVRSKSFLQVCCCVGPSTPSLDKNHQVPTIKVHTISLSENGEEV
Experiment: Radioligand binding, [3H]prazosin displacement
Details: read-out: α1A Ki; mean±SD, n=3

| SMILES | Ki |
| --- | --- |
| CC(N)C(=O)c1ccc2c(c1)OCO2 (stereo not drawn) [MDC, 3,4-methylenedioxycathinone] | > 9.5 µM |
| CNC(C)Cc1ccc(O)c(OC)c1 (stereo not drawn) [HMMA, 4-hydroxy-3-methoxymethamphetamine] | > 9.5 µM |
| CCCC(C(=O)c1ccc2c(c1)OCO2)N1CCCC1 (stereo not drawn) [MDPV, 3,4-methylenedioxypyrovalerone, reference compound] | > 9.5 µM |

Molecular target: T3, α2 adrenergic receptor (α2A) (Homo sapiens, UniProt P08913)
T3 sequence (P08913 1-465): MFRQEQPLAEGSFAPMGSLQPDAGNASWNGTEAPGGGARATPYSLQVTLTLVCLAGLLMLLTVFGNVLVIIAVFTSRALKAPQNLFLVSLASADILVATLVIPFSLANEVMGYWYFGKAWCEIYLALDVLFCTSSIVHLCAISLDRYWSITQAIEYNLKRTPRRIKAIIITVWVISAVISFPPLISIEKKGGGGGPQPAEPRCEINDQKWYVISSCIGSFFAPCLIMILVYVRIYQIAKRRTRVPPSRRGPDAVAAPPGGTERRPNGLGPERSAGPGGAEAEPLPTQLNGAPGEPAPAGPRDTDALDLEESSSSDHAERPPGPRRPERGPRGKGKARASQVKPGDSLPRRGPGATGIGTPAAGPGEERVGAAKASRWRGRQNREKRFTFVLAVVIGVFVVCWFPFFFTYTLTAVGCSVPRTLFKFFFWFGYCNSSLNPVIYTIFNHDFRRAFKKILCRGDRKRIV
Experiment: Radioligand binding, [3H]rauwolscine displacement
Details: read-out: α2A Ki; mean±SD, n=3

| SMILES | Ki |
| --- | --- |
| CC(N)C(=O)c1ccc2c(c1)OCO2 (stereo not drawn) [MDC, 3,4-methylenedioxycathinone] | > 4.7 µM |
| CNC(C)Cc1ccc(O)c(OC)c1 (stereo not drawn) [HMMA, 4-hydroxy-3-methoxymethamphetamine] | > 4.7 µM |
| CCCC(C(=O)c1ccc2c(c1)OCO2)N1CCCC1 (stereo not drawn) [MDPV, 3,4-methylenedioxypyrovalerone, reference compound] | > 5 µM |

Molecular target: T4, 5-HT1A receptor (Homo sapiens, UniProt P08908)
T4 sequence (P08908 1-422): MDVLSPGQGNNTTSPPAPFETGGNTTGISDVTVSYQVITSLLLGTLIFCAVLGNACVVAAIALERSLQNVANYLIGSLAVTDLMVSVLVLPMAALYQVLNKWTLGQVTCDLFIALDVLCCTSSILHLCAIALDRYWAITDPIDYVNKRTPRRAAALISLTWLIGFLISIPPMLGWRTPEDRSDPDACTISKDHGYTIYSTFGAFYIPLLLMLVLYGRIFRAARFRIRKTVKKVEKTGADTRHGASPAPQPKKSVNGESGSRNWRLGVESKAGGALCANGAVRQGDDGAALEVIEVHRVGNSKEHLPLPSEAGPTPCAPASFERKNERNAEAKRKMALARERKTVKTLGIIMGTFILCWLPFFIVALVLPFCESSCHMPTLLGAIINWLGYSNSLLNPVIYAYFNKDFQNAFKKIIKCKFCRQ
Experiment: Radioligand binding, [3H]8-hydroxy-2-
Details: read-out: 5-HT1A Ki; mean±SD, n=3

| SMILES | Ki |
| --- | --- |
| CC(N)C(=O)c1ccc2c(c1)OCO2 (stereo not drawn) [MDC, 3,4-methylenedioxycathinone] | > 17 µM |
| CNC(C)Cc1ccc(O)c(OC)c1 (stereo not drawn) [HMMA, 4-hydroxy-3-methoxymethamphetamine] | > 18 µM |
| CCCC(C(=O)c1ccc2c(c1)OCO2)N1CCCC1 (stereo not drawn) [MDPV, 3,4-methylenedioxypyrovalerone, reference compound] | 12 ± 2 µM |

Molecular target: 5-HT2A receptor (Homo sapiens, UniProt P28223)
Sequence (P28223 whole entry): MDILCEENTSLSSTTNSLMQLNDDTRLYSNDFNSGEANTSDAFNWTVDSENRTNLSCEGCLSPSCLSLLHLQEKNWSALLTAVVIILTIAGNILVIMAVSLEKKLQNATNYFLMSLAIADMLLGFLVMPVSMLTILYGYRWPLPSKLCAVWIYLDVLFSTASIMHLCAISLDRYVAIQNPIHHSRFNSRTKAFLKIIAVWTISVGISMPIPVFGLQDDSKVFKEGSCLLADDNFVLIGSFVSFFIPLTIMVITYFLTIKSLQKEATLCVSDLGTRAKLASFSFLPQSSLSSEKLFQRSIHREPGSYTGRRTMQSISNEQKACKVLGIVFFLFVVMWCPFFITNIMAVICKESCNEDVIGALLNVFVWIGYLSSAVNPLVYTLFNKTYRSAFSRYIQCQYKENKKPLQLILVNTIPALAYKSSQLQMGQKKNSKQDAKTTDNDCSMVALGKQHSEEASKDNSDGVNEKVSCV
Experiment: Radioligand binding, [3H]ketanserin displacement
Details: read-out: 5-HT2A Ki; mean±SD, n=3

| SMILES | Ki |
| --- | --- |
| CC(N)C(=O)c1ccc2c(c1)OCO2 (stereo not drawn) [MDC, 3,4-methylenedioxycathinone] | > 12 µM |
| CNC(C)Cc1ccc(O)c(OC)c1 (stereo not drawn) [HMMA, 4-hydroxy-3-methoxymethamphetamine] | > 12 µM |
| CCCC(C(=O)c1ccc2c(c1)OCO2)N1CCCC1 (stereo not drawn) [MDPV, 3,4-methylenedioxypyrovalerone, reference compound] | > 12 µM |

Molecular target: T5, 5-HT2C receptor (Homo sapiens, UniProt P28335)
T5 sequence (P28335 33-458): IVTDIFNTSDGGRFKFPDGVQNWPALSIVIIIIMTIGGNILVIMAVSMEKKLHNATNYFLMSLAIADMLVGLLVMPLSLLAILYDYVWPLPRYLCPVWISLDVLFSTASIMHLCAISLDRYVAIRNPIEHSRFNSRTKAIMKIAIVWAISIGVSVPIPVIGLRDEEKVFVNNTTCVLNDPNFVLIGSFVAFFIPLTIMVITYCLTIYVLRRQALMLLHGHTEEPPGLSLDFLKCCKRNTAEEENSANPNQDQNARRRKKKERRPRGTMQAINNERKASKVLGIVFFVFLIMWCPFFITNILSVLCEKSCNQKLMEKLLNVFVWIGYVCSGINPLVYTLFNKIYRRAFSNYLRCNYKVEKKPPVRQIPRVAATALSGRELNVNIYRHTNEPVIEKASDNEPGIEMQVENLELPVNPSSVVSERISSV
Experiment: biochemical
Assay type: binding
Details: read-out: 5-HT2c Ki; mean±SD, n=3

| SMILES | Ki |
| --- | --- |
| CC(N)C(=O)c1ccc2c(c1)OCO2 (stereo not drawn) [MDC, 3,4-methylenedioxycathinone] | > 5.1 µM |
| CNC(C)Cc1ccc(O)c(OC)c1 (stereo not drawn) [HMMA, 4-hydroxy-3-methoxymethamphetamine] | > 5.1 µM |
| CCCC(C(=O)c1ccc2c(c1)OCO2)N1CCCC1 (stereo not drawn) [MDPV, 3,4-methylenedioxypyrovalerone, reference compound] | 2 µM and 2.1 µM |

Molecular target: rat TAAR1 (Rattus norvegicus, UniProt Q923Y9)
Sequence (Q923Y9 whole entry): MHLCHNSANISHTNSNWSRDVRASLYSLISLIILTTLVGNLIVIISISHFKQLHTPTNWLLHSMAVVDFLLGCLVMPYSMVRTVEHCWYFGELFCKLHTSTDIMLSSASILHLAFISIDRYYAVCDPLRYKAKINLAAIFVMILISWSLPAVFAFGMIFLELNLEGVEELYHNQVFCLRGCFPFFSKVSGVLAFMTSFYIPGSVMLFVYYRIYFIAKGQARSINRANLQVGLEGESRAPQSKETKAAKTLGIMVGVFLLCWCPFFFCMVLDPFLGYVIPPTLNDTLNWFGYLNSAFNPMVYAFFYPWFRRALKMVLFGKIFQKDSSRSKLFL
Experiment: Radioligand binding, [3H]RO5166017 displacement
Details: read-out: TAAR1rat Ki; mean±SD, n=3

| SMILES | Ki |
| --- | --- |
| CNC(C)Cc1ccc(O)c(OC)c1 (stereo not drawn) [HMMA, 4-hydroxy-3-methoxymethamphetamine] | 0.25 ± 0.04 µM |
| CCCC(C(=O)c1ccc2c(c1)OCO2)N1CCCC1 (stereo not drawn) [MDPV, 3,4-methylenedioxypyrovalerone, reference compound] | > 5 µM |

Molecular target: mouse TAAR1 (Mus musculus, UniProt Q923Y8)
Sequence (Q923Y8 whole entry): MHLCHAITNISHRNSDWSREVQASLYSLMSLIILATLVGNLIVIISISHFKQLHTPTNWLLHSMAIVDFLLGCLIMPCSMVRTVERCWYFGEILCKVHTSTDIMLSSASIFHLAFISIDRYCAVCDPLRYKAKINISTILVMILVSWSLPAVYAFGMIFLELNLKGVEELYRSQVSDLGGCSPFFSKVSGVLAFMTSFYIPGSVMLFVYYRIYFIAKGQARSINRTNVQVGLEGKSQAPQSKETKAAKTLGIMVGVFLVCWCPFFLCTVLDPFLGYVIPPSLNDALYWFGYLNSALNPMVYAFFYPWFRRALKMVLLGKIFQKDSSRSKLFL
Experiment: Radioligand binding, [3H]RO5166017 displacement
Details: read-out: TAAR1mouse Ki; mean±SD, n=3

| SMILES | Ki |
| --- | --- |
| CC(N)C(=O)c1ccc2c(c1)OCO2 (stereo not drawn) [MDC, 3,4-methylenedioxycathinone] | 3.5 ± 0.3 µM |
| CNC(C)Cc1ccc(O)c(OC)c1 (stereo not drawn) [HMMA, 4-hydroxy-3-methoxymethamphetamine] | 0.45 ± 0.05 µM |
| CCCC(C(=O)c1ccc2c(c1)OCO2)N1CCCC1 (stereo not drawn) [MDPV, 3,4-methylenedioxypyrovalerone, reference compound] | > 4.7 µM |

Tested on: not given
Experiment: not given
Details: rats, subcutaneous injections of 0.5–2 mg/kg MDPV; ref Anizan et al., 2016; cited from earlier work

| SMILES | Tmax |
| --- | --- |
| CCCC(C(=O)c1ccc2c(c1)OCO2)N1CCCC1 (stereo not drawn) [MDPV, 3,4-methylenedioxypyrovalerone, reference compound] | 13 to 19 min |

Tested on: not given
Experiment: not given
Details: healthy human subjects, oral MDMA; ref Schmid et al., 2016; cited from earlier work

| SMILES | Cmax as % of the Cmax of MDMA | Cmax of unconjugated form as % of the Cmax of MDMA |
| --- | --- | --- |
| CNC(C)Cc1ccc(O)c(OC)c1 (stereo not drawn) [HMMA, 4-hydroxy-3-methoxymethamphetamine] | 9–48% | 1–3% |

Tested on: not given
Experiment: not given
Details: rat plasma, subcutaneous injections of methylone; ref Elmore et al., 2017; cited from earlier work

| SMILES | amount in plasma as % of parent compound methylone |
| --- | --- |
| CC(N)C(=O)c1ccc2c(c1)OCO2 (stereo not drawn) [MDC, 3,4-methylenedioxycathinone] | 10–13% |

Same assay, conditions: rat plasma, subcutaneous methylone; ref Elmore et al., 2017; cited from earlier work

| SMILES | time at which Cmax was reached |
| --- | --- |
| CC(N)C(=O)c1ccc2c(c1)OCO2 (stereo not drawn) [MDC, 3,4-methylenedioxycathinone] | 30 to 45 min |

Tested on: not given
Experiment: not given
Details: after subcutaneous methylone; ref Stefkova et al., 2017; cited from earlier work

| SMILES | delay of serum peak relative to methylone |
| --- | --- |
| CC(N)C(=O)c1ccc2c(c1)OCO2 (stereo not drawn) [MDC, 3,4-methylenedioxycathinone] | 30 min |

Same assay, conditions: peak, after subcutaneous methylone; ref Stefkova et al., 2017; cited from earlier work

| SMILES | serum level as % of the methylone levels |
| --- | --- |
| CC(N)C(=O)c1ccc2c(c1)OCO2 (stereo not drawn) [MDC, 3,4-methylenedioxycathinone] | about 20% |
